We go through one molecule from patent EP4085921A1 (priority 2021, dated 2022).

The conditions of data set [1]: as a function of the treatment time interval; Fig. 18.

With `CC[C@H](C)[C@H](NC(=O)[C@H](Cc1ccc(O)cc1)NC(=O)[C@@H](NC(=O)[C@H](CCCNC(=N)N)NC(=O)[C@@H](N)CC(=O)O)C(C)C)C(=O)N[C@@H](Cc1c[nH]cn1)C(=O)N1CCC[C@H]1C(=O)O` [Angiotensin-(1-7), Asp-Arg-Val-Tyr-Ile-His-Pro], the “side-effects in the clinical trial” value (5 to 25 mcg/kg/24h range as stated) is “very safe without severe Ang-(1-7)-related side-effects”. In addition, under “Ang-(1-7) administration in the defined concentration range”, the hypotension as side-effect result is given as “not a side-effect”. The “averaged blood pressure (SBP, MAP, DBP)” value (at 11 am and 11 pm as a function of ICU days with infusion, Fig. 10, 11) is “not significantly influenced”. Also, the averaged heart rate entry (at 11 am and 11 pm as a function of ICU days with infusion, Fig. 14, 15) was “not influences”. Further, the average temperatures entry (at 11 am during infusion, Fig. 16) is “not significantly influenced”. Also, the “averaged Angiotensin-(1-7) levels” value in data set [1] is reported as “does not result in increased Ang-(1-7) levels”.
